{"source": "PubChem BioAssay AID489017", "about": "(The Scripps Research Institute Molecular Screening Center, 2010)", "experiment_in_all_cases": "off-target binding and CYP450 inhibition panel, profiling panel, selectivity assay for S1P4 antagonist project, biochemical, Ricerca HitProfilingScreen (AID 489017)", "key": {"Glutamate NMDA": {"test_system": "Glutamate NMDA", "conditions": "Ricerca receptor/enzyme binding panel plus CYP450, Phencyclidine site, at 10 µM, active compounds read high"}, "[1]": {"molecular_target": "Voltage-gated inwardly rectifying potassium channel KCNH2 (Homo sapiens) (UniProt Q12809)", "sequence (Q12809 whole entry, looked up)": "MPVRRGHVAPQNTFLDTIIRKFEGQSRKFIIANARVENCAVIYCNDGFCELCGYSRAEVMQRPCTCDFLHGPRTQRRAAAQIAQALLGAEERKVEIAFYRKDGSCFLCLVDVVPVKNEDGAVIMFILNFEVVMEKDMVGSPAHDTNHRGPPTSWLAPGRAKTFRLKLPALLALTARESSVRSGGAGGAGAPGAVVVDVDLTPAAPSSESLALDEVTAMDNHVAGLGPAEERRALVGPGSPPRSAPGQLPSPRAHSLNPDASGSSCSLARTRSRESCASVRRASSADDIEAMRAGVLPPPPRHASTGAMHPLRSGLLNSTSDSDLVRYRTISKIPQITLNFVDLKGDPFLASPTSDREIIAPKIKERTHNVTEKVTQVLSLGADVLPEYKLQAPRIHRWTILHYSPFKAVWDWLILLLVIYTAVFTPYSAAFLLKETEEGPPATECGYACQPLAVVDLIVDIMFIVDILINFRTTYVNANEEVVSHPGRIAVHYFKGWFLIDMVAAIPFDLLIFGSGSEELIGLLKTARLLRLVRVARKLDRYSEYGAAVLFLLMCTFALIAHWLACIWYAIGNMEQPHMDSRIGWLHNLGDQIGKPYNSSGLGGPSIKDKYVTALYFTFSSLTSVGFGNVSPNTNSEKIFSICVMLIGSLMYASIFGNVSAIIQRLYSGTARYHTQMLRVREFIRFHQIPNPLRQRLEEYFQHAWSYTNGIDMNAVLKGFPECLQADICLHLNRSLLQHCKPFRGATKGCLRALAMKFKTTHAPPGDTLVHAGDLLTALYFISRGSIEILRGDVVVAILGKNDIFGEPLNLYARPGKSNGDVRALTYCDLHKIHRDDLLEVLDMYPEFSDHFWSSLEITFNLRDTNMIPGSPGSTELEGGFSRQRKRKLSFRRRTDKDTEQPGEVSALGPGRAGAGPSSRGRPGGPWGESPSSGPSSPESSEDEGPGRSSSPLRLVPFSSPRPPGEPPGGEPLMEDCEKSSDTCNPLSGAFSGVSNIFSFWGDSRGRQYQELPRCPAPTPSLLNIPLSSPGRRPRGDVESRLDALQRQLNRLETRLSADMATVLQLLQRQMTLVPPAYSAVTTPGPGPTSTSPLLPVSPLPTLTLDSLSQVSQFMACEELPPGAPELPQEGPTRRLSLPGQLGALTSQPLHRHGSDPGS", "conditions": "Ricerca receptor/enzyme binding panel plus CYP450; Potassium Channel hERG; at 10 µM; active compounds read high"}, "CYP450 2C19": {"test_system": "CYP450 2C19", "conditions": "Ricerca receptor/enzyme binding panel plus CYP450, at 10 µM, active compounds read high"}, "[2]": {"molecular_target": "Cytochrome P450 2D6 (Homo sapiens) (UniProt P10635)", "sequence (P10635 whole entry, looked up)": "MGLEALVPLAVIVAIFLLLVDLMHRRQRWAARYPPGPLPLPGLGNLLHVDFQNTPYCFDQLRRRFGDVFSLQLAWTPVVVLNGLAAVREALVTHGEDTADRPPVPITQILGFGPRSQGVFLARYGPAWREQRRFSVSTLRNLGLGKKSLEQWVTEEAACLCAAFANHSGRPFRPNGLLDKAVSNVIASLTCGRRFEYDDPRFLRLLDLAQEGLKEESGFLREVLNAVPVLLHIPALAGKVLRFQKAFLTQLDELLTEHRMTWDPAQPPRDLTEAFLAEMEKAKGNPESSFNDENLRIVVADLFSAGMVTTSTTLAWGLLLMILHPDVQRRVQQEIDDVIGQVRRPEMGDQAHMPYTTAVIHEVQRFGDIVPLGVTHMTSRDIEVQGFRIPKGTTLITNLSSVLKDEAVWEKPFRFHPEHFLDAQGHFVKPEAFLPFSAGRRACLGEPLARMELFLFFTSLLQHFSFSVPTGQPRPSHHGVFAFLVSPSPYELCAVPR", "conditions": "Ricerca receptor/enzyme binding panel plus CYP450; CYP450 2D6; at 10 µM; active compounds read high"}, "[3]": {"molecular_target": "Cytochrome P450 3A4 (Homo sapiens) (UniProt P08684)", "sequence (P08684 whole entry, looked up)": "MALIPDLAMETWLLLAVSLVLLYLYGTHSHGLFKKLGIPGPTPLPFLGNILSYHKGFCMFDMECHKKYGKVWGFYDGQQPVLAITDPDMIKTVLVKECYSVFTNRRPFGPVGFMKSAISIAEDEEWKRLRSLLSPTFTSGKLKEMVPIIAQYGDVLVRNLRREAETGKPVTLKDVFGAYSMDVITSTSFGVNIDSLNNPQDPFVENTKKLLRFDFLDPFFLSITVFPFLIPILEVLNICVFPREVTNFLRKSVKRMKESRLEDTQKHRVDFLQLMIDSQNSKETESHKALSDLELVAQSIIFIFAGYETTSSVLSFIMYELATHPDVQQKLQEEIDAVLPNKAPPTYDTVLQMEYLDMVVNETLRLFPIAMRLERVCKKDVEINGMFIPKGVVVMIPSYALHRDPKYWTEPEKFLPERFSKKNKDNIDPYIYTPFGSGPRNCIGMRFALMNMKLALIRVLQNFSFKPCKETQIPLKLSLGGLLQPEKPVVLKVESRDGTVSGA", "conditions": "Ricerca receptor/enzyme binding panel plus CYP450; CYP450 3A4; at 10 µM; active compounds read high"}, "GABAA Central": {"test_system": "GABAA Central", "conditions": "at 10 µM, active compounds read high"}, "Adenosine A2A": {"test_system": "Adenosine A2A", "conditions": "Ricerca receptor/enzyme binding panel plus CYP450, at 10 µM, active compounds read high"}, "Sodium Channel": {"test_system": "Sodium Channel", "conditions": "Ricerca receptor/enzyme binding panel plus CYP450, site 2, at 10 µM, active compounds read high"}, "[4]": {"molecular_target": "Alpha-2A adrenergic receptor (Homo sapiens) (UniProt P08913)", "sequence (P08913 whole entry, looked up)": "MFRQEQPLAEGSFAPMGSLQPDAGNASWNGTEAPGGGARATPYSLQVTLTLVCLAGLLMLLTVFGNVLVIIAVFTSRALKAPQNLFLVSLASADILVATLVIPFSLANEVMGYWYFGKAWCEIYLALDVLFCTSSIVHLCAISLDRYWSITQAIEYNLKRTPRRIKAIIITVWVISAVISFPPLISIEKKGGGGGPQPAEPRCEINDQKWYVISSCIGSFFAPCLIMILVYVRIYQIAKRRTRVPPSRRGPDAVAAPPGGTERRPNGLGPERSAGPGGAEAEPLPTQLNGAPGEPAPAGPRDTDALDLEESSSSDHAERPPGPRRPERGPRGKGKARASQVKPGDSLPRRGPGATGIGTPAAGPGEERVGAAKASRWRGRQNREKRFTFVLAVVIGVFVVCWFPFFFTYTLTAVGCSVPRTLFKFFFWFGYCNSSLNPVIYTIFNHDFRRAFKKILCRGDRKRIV", "conditions": "Ricerca receptor/enzyme binding panel plus CYP450; Adrenergic alpha2A; at 10 µM; active compounds read high"}, "Histamine H1": {"test_system": "Histamine H1", "conditions": "Ricerca receptor/enzyme binding panel plus CYP450, at 10 µM, active compounds read high"}, "[5]": {"molecular_target": "Muscarinic acetylcholine receptor M2 (Homo sapiens) (UniProt P08172)", "sequence (P08172 whole entry, looked up)": "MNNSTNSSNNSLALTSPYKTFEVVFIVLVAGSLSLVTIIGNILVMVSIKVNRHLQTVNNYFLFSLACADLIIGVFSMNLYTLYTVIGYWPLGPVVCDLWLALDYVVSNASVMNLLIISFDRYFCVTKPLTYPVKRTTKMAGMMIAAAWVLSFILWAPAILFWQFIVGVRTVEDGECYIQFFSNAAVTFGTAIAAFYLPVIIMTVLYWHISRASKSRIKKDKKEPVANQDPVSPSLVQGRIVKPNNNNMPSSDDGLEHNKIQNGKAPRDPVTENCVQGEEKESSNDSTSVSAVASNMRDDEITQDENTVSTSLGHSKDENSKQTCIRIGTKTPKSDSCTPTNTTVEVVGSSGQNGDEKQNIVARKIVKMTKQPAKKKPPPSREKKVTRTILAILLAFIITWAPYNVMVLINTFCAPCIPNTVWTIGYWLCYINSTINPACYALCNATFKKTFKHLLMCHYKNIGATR", "conditions": "Ricerca receptor/enzyme binding panel plus CYP450, at 10 µM, active compounds read high"}, "Adenosine A1": {"test_system": "Adenosine A1", "conditions": "Ricerca receptor/enzyme binding panel plus CYP450, at 10 µM, active compounds read high"}, "Calcium Channel L-Type": {"test_system": "Calcium Channel L-Type", "conditions": "Ricerca receptor/enzyme binding panel plus CYP450, Dihydropyridine site, at 10 µM, active compounds read high"}, "[6]": {"test_system": "Norepinephrine Transporter (NET)", "conditions": "Ricerca receptor/enzyme binding panel plus CYP450, at 10 µM, active compounds read high"}, "[7]": {"molecular_target": "Muscarinic acetylcholine receptor M3 (Homo sapiens) (UniProt P20309)", "conditions": "Ricerca receptor/enzyme binding panel plus CYP450, at 10 µM, active compounds read high"}, "[8]": {"molecular_target": "Beta-2 adrenergic receptor (Homo sapiens) (UniProt P07550)", "conditions": "Ricerca receptor/enzyme binding panel plus CYP450; Adrenergic beta2; at 10 µM; active compounds read high"}, "Adrenergic beta1": {"test_system": "Adrenergic beta1", "conditions": "Ricerca receptor/enzyme binding panel plus CYP450, at 10 µM, active compounds read high"}, "Sigma 1": {"test_system": "Sigma 1", "conditions": "Ricerca receptor/enzyme binding panel plus CYP450, at 10 µM, active compounds read high"}, "Dopamine D2S": {"test_system": "Dopamine D2S", "conditions": "Ricerca receptor/enzyme binding panel plus CYP450, at 10 µM, active compounds read high"}, "Nicotinic Acetylcholine": {"test_system": "Nicotinic Acetylcholine", "conditions": "Ricerca receptor/enzyme binding panel plus CYP450, at 10 µM, active compounds read high"}, "Opiate mu (OP3, MOP)": {"test_system": "Opiate mu (OP3, MOP)", "conditions": "Ricerca receptor/enzyme binding panel plus CYP450, at 10 µM, active compounds read high"}, "Prostanoid EP4": {"test_system": "Prostanoid EP4", "conditions": "Ricerca receptor/enzyme binding panel plus CYP450, at 10 µM, active compounds read high"}, "[9]": {"molecular_target": "Cytochrome P450 1A2 (Homo sapiens) (UniProt P05177)", "sequence (P05177 whole entry, looked up)": "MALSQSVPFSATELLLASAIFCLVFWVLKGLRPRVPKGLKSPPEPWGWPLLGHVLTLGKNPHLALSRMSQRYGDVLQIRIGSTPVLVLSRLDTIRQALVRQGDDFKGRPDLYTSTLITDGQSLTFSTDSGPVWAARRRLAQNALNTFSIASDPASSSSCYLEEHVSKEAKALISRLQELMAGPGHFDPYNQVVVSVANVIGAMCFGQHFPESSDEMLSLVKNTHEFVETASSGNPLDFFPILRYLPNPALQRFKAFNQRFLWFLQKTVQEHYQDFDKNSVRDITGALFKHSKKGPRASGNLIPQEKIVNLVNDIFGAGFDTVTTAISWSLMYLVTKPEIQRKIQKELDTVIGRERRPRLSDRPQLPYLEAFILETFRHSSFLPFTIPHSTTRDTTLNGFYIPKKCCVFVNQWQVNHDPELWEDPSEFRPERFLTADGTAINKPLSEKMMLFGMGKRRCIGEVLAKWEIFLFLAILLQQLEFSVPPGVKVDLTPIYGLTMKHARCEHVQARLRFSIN", "conditions": "Ricerca receptor/enzyme binding panel plus CYP450; CYP450 1A2; at 10 µM; active compounds read high"}, "Adrenergic alpha1B": {"test_system": "Adrenergic alpha1B", "conditions": "Ricerca receptor/enzyme binding panel plus CYP450, at 10 µM, active compounds read high"}, "[10]": {"molecular_target": "5-hydroxytryptamine receptor 2B (Homo sapiens) (UniProt P41595)", "sequence (P41595 whole entry, looked up)": "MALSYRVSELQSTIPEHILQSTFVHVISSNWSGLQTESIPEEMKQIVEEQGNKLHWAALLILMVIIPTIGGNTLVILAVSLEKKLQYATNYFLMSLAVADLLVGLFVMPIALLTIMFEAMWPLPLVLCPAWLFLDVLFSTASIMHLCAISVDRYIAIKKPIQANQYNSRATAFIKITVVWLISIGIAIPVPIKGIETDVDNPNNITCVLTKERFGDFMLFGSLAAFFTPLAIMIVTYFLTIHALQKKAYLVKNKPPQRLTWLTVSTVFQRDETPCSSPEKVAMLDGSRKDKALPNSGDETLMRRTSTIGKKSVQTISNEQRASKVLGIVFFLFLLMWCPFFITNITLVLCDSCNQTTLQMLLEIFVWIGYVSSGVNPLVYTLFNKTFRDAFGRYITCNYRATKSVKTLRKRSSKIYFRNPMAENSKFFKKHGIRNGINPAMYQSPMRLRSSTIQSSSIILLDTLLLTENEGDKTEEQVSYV", "conditions": "Ricerca receptor/enzyme binding panel plus CYP450; Serotonin (5-Hydroxytryptamine) 5-HT2B; at 10 µM; active compounds read high"}, "Adrenergic alpha1A": {"test_system": "Adrenergic alpha1A", "conditions": "Ricerca receptor/enzyme binding panel plus CYP450, at 10 µM, active compounds read high"}, "[11]": {"molecular_target": "D(1A) dopamine receptor (Homo sapiens) (UniProt P21728)", "sequence (P21728 whole entry, looked up)": "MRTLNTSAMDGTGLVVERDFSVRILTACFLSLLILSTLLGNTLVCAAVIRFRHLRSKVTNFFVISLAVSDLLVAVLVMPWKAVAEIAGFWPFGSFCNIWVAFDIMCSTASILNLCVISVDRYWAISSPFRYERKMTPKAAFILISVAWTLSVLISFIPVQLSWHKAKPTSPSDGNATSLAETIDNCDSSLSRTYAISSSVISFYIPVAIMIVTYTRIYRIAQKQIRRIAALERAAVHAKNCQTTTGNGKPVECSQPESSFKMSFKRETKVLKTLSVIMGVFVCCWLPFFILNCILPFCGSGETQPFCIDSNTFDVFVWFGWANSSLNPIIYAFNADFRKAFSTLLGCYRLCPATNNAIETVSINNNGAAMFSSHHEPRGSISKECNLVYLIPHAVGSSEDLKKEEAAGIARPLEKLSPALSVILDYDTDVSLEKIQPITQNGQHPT", "conditions": "Ricerca receptor/enzyme binding panel plus CYP450; Dopamine D1; at 10 µM; active compounds read high"}, "Cannabinoid CB1": {"test_system": "Cannabinoid CB1", "conditions": "Ricerca receptor/enzyme binding panel plus CYP450, at 10 µM, active compounds read high"}, "[12]": {"molecular_target": "Cytochrome P450 2C9 (Homo sapiens) (UniProt P11712)", "sequence (P11712 whole entry, looked up)": "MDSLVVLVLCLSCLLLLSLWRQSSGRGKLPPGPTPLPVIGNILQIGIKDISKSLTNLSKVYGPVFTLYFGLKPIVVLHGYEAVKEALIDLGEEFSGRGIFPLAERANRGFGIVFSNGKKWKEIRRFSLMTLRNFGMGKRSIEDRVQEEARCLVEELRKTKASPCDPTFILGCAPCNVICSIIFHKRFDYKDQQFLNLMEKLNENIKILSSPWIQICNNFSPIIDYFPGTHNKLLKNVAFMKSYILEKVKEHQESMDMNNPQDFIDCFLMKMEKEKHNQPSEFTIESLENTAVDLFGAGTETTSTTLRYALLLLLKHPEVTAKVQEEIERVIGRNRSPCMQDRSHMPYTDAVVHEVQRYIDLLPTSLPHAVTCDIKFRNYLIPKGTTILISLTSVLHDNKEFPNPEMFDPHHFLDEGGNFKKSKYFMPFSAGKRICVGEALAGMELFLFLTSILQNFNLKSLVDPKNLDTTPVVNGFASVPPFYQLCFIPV", "conditions": "Ricerca receptor/enzyme binding panel plus CYP450; CYP450 2C9; at 10 µM; active compounds read high"}, "[13]": {"test_system": "Alpha-2A adrenergic receptor (Homo sapiens) + Histamine H1 receptor (Homo sapiens) + Mu-type opioid receptor (Homo sapiens)", "conditions": "Ricerca receptor/enzyme binding panel plus CYP450; at 10 µM; active compounds read high"}}, "note": "The source made the active and inactive calls. The rule behind the calls is not given here.", "data": [{"smiles": "CCc1cccc(CC)c1NC(=O)c1ccc(-c2cc(Cl)ccc2Cl)o1", "values": [{"measurement": "inhibition", "setting": "Glutamate NMDA", "result": "1% (inactive)"}, {"measurement": "inhibition", "setting": "[1]", "result": "10% (inactive)"}, {"measurement": "inhibition", "setting": "CYP450 2C19", "result": "37% (inactive)"}, {"measurement": "inhibition", "setting": "[2]", "result": "1% (inactive)"}, {"measurement": "inhibition", "setting": "[3]", "result": "22% (inactive)"}, {"measurement": "inhibition", "setting": "GABAA Central; Ricerca receptor/enzyme binding panel plus CYP450, Flunitrazepam site", "result": "7% (inactive)"}, {"measurement": "inhibition", "setting": "GABAA Central; Ricerca receptor/enzyme binding panel plus CYP450, Muscimol site", "result": "8% (inactive)"}, {"measurement": "inhibition", "setting": "Adenosine A2A", "result": "-6% (inactive)"}, {"measurement": "inhibition", "setting": "Sodium Channel", "result": "43% (inactive)"}, {"measurement": "inhibition", "setting": "[4]", "result": "18% (inactive)"}, {"measurement": "inhibition", "setting": "Histamine H1", "result": "30% (inactive)"}, {"measurement": "inhibition", "setting": "[5]", "result": "-3% (inactive)"}, {"measurement": "inhibition", "setting": "Adenosine A1", "result": "0% (inactive)"}, {"measurement": "inhibition", "setting": "Calcium Channel L-Type", "result": "12% (inactive)"}, {"measurement": "inhibition", "setting": "[6]", "result": "17% (inactive)"}, {"measurement": "inhibition", "setting": "[7]", "result": "2% (inactive)"}, {"measurement": "inhibition", "setting": "[8]", "result": "11% (inactive)"}, {"measurement": "inhibition", "setting": "Adrenergic beta1", "result": "0% (inactive)"}, {"measurement": "inhibition", "setting": "Sigma 1", "result": "-7% (inactive)"}, {"measurement": "inhibition", "setting": "Dopamine D2S", "result": "13% (inactive)"}, {"measurement": "inhibition", "setting": "Nicotinic Acetylcholine", "result": "-12% (inactive)"}, {"measurement": "inhibition", "setting": "Opiate mu (OP3, MOP)", "result": "8% (inactive)"}, {"measurement": "inhibition", "setting": "Prostanoid EP4", "result": "27% (inactive)"}, {"measurement": "inhibition", "setting": "[9]", "result": "27% (inactive)"}, {"measurement": "inhibition", "setting": "Adrenergic alpha1B", "result": "-6% (inactive)"}, {"measurement": "inhibition", "setting": "[10]", "result": "40% (inactive)"}, {"measurement": "inhibition", "setting": "Adrenergic alpha1A", "result": "-3% (inactive)"}, {"measurement": "inhibition", "setting": "[11]", "result": "5% (inactive)"}, {"measurement": "inhibition", "setting": "Cannabinoid CB1", "result": "15% (inactive)"}, {"measurement": "inhibition", "setting": "[12]", "result": 51, "unit": "%"}, {"measurement": "inhibition", "setting": "[13]", "result": "-4% (inactive)"}]}]}
